Molecular target: T1, MTGase (Streptomyces mobaraensis, UniProt P81453)
T1 sequence (P81453 77-407): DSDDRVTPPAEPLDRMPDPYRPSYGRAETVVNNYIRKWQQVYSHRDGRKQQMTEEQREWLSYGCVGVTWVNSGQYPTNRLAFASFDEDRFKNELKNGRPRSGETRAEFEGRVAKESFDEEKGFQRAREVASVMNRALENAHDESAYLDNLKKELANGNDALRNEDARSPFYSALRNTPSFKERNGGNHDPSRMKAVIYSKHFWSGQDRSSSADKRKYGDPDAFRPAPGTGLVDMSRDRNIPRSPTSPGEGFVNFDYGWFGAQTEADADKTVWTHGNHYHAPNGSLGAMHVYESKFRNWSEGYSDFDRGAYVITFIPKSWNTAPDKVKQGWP
Assay: MTGase mediated conjugation of linkers to deglycosylated/trimmed antibody X, efficiency by LC-MS
Format: biochemical
Parameters: Efficiency of MTGase mediated conjugation, PNGase F Process: tested at 200 eq
Settings: linker 200 eq., 37° C., 18 h; for Efficiency of MTGase mediated conjugation, EndoS Process: antibody X glycan trimmed with EndoS; for Efficiency of MTGase mediated conjugation, PNGase F Process: antibody X deglycosylated with PNGase F
Protocol: Antibody X (2.5 mg) was degylcosylated using PNGase F (379 KU) at an antibody concentration of 1.33 mg/mL, the digest was incubated at 37° C. for 18 h. Deglycosylated antibody X was purified by protein A chromatography followed by buffer exchange into PBS and concentration by UF/DF.
Antibody X (2.5 mg) glycans were trimmed using EndoS (12.5 μg) at an antibody concentration of 1.0 mg/mL, the digest was incubated at 37° C. for 18 h. Trimmed antibody X was purified by protein A chromatography followed by buffer exchange into PBS and concentration by UF/DF.
Solutions of linkers 1-4, 7, 8 & 11 (Table 1) were prepared in PBS. Degylcosylated/trimmed antibody X samples (0.1 mg, 2 mg/mL) were next functionalized with linkers 1-4, 7, 8 & 11 (200 eq.) via MTGase mediated conjugation using 6.7 U of enzyme per mg of antibody. The resulting reactions were incubated at 37° C. for 18 h. Functionalized antibody X samples were purified by protein A chromatography followed by buffer exchange into PBS and concentration via UF/DF. The efficiency of conjugation for the purified samples was determined by LC-MS (Table 2).

Row | Molecule | Efficiency of MTGase mediated conjugation, EndoS Process [%] | Efficiency of MTGase mediated conjugation, PNGase F Process [%]
1 | [N-]=[N+]=NCCOCCOCCOCCNC(=O)c1ccc(C(=O)NN)cc1 [Compound 7, 4-hydrazidobenzamide-PEG(4u)-azide] | 100 | –
2 | [N-]=[N+]=NCCOCCOCCOCCNC(=O)c1ccc(NN)cc1 [Compound 8, 4-hydrazinobenzamide-PEG(4u)-azide] | 84 | 91
3 | aminooxy-PEG(3u)-azide [Compound 2] | 84 | 95
4 | amine-PEG(3u)-azide [Compound 1] | 100 | 100
5 | hydrazido-PEG(4u)-azide [Compound 3] | 97 | 98
6 | hydrazino-PEG(4u)-azide [Compound 4] | 86 | 89
7 | [N-]=[N+]=NCCOCCOCCOCCNC(=O)c1ccc(CC(=O)NN)cc1 [Compound 11, 4-hydrazidomethylbenzamide-PEG(4u)-azide] | 100 | –

From US20250163488A1, “CONJUGATION METHOD INVOLVING A TRANSGLUTAMINASE AT THE FC REGION COMPRISING A TRIMMED N-GLYCAN” (ADC THERAPEUTICS SA, priority 2022, published 2025)
